In the supplement of paper PMC10307832:

Key:
Assay in all cases: relative viability (nuclei count vs DMSO), 5 days (fraction); higher = more cells survive
[1] = compound: COC1=CC=C(C=C1)CN2C=CC3=C2C=C(C=C3)C(=O)NO + COc1cc2c(Oc3ccc(NC(=O)C4(C(=O)Nc5ccc(F)cc5)CC4)cc3F)ccnc2cc1OCCCN1CCOCC1 [Foretinib] (partner 0.25 µM)
How it was run: (§1)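 Relative viability equals treated-well nuclei counts divided by vehicle-well nuclei counts. Counts came from 4× images of lung cancer cell lines grown in 1536-well plates for 5 days after pin-tool dosing on the day after seeding. Dosing used one drug alone or a fixed anchor-drug dose plus five library-drug doses (not always all listed) in √10 steps, and values are medians of duplicate plates.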

[2] = compound: COC1=CC=C(C=C1)CN2C=CC3=C2C=C(C=C3)C(=O)NO + CS(=O)(=O)CCNCc1ccc(-c2ccc3ncnc(Nc4ccc(OCc5cccc(F)c5)c(Cl)c4)c3c2)o1 [Lapatinib] (partner 2 µM)
How it was run: as §1

Veliparib + OSI-027 = compound: C[C@]1(c2nc3c(C(N)=O)cccc3[nH]2)CCCN1 [Veliparib] + COc1cccc2cc(-c3nc([C@H]4CC[C@H](C(=O)O)CC4)n4ncnc(N)c34)[nH]c12 [OSI-027] (partner 0.5 µM)
How it was run: as §1

Veliparib + AZD7762 = compound: C[C@]1(c2nc3c(C(N)=O)cccc3[nH]2)CCCN1 [Veliparib] + NC(=O)Nc1cc(-c2cccc(F)c2)sc1C(=O)N[C@H]1CCCNC1 [AZD7762] (partner 0.2 µM)
How it was run: as §1

| Cell Line | relative viability ([1]; first compound 0.08 µM) | relative viability ([1]; first compound 0.253 µM) | relative viability ([1]; first compound 0.8 µM) | relative viability ([1]; first compound 2.53 µM) | relative viability ([1]; first compound 8 µM) | relative viability ([2]; first compound 0.08 µM) | relative viability ([2]; first compound 0.253 µM) | relative viability ([2]; first compound 0.8 µM) | relative viability ([2]; first compound 2.53 µM) | relative viability ([2]; first compound 8 µM) | relative viability (Veliparib + OSI-027; first compound 0.02 µM) | relative viability (Veliparib + OSI-027; first compound 0.06325 µM) | relative viability (Veliparib + OSI-027; first compound 0.2 µM) | relative viability (Veliparib + OSI-027; first compound 0.6325 µM) | relative viability (Veliparib + OSI-027; first compound 2 µM) | relative viability (Veliparib + AZD7762; first compound 0.02 µM) | relative viability (Veliparib + AZD7762; first compound 0.06325 µM) | relative viability (Veliparib + AZD7762; first compound 0.2 µM) | relative viability (Veliparib + AZD7762; first compound 0.6325 µM) | relative viability (Veliparib + AZD7762; first compound 2 µM) |
| --- | --- | --- | --- | --- | --- | --- | --- | --- | --- | --- | --- | --- | --- | --- | --- | --- | --- | --- | --- | --- |
| 201T | 1.06 | 1.15 | 1.24 | 1.06 | 0.999 | 1 | 1.03 | 1.06 | 1.05 | 0.969 | 0.659 | 0.58 | 0.713 | 0.759 | 0.722 | 0.656 | 0.778 | 0.645 | 0.639 | 0.689 |
| A549 | 0.802 | 0.965 | 0.948 | 0.952 | 0.987 | – | 0.931 | 1.09 | 0.953 | 0.915 | – | – | – | – | – | – | – | – | – | – |
| A-427 | – | 1.03 | 1.16 | 1.12 | 1 | – | 1.07 | 1.1 | 0.995 | 0.909 | – | 0.414 | 0.485 | 0.456 | 0.463 | 0.768 | 0.719 | 0.755 | 0.724 | 0.782 |
| ABC-1 | – | 1.14 | 1.02 | 0.935 | 1.14 | 0.618 | 1.13 | 1.21 | 1.3 | 1.13 | – | 0.429 | 0.618 | 0.493 | 0.312 | – | 0.778 | 0.771 | 0.752 | 0.716 |
| BEN | 0.604 | 0.459 | 0.454 | 0.641 | 0.479 | 0.552 | 0.552 | 0.637 | 0.78 | 0.621 | 0.288 | 0.315 | 0.294 | 0.296 | 0.3 | 0.599 | 0.644 | 0.664 | 0.793 | 0.625 |
| CAL-12T | 0.918 | 1 | 1.2 | 1.06 | 1 | 0.215 | – | 0.715 | 0.755 | 0.605 | 0.62 | 0.629 | 0.604 | 0.584 | 0.657 | 0.668 | 0.591 | 0.661 | 0.627 | 0.741 |
| COR-L23 | 0.741 | 0.992 | 0.985 | 0.99 | 0.945 | 0.736 | 1.07 | 0.937 | 1.02 | 0.84 | 0.707 | 0.738 | 0.841 | 0.57 | 0.77 | – | – | – | – | – |
| COR-L 105 | 0.681 | 1.43 | 0.853 | 1.08 | 0.212 | – | 0.367 | 0.37 | 0.341 | 0.296 | 0.462 | 0.715 | 0.651 | 0.626 | 0.654 | – | – | – | – | – |
| Calu-6 | 0.419 | 0.853 | 0.851 | 0.889 | 0.725 | 0.432 | 1.05 | 1.06 | 1.1 | 1.03 | – | – | – | – | – | – | – | – | – | – |
| ChaGo-K-1 | – | 0.932 | 0.898 | 0.802 | 0.869 | – | – | – | – | – | 0.266 | 0.519 | 0.513 | 0.589 | 0.55 | 0.73 | 0.854 | 0.83 | 0.83 | 0.824 |
| EBC-1 | 0.0855 | 0.0996 | 0.0919 | 0.102 | 0.113 | – | 0.226 | 0.211 | 0.232 | 0.208 | – | – | – | – | – | – | – | – | – | – |
| EKVX | 0.542 | 0.555 | 0.801 | 0.762 | 0.849 | 0.166 | 0.18 | 0.185 | 0.203 | 0.225 | 0.629 | 0.646 | 0.63 | 0.639 | 0.675 | – | 0.731 | 0.833 | 0.728 | 0.806 |
| EMC-BAC-2 | 0.788 | 1.03 | 0.98 | 0.977 | 0.922 | 0.613 | 0.884 | 0.954 | 0.906 | 0.819 | 0.346 | 0.318 | 0.379 | 0.349 | 0.345 | 1.15 | 1.02 | 1.12 | 1.09 | 1.17 |
| EPLC-272H | 0.293 | – | 0.653 | 0.704 | 0.662 | 0.199 | 0.974 | 1.04 | 0.974 | 0.728 | 0.227 | 0.273 | 0.265 | 0.26 | 0.344 | – | 0.122 | 0.21 | 0.174 | 0.166 |
| H3255 | 0.92 | 0.702 | 0.821 | 0.89 | 0.398 | 0.184 | 0.247 | 0.221 | 0.238 | 0.226 | 0.674 | 0.681 | 0.584 | 0.545 | 0.584 | 1 | 0.893 | 0.816 | 0.756 | 0.857 |
| HARA | – | 0.868 | 0.958 | 0.826 | 0.55 | 0.424 | 0.891 | 0.815 | 0.712 | 0.679 | 0.508 | 0.495 | 0.465 | 0.433 | 0.485 | 0.346 | – | 0.302 | 0.308 | 0.573 |
| HCC-15 | 0.642 | 1.02 | 1 | 1.03 | 1.01 | 0.458 | 0.875 | 0.843 | 0.842 | 0.73 | – | 0.641 | 0.7 | 0.619 | 0.603 | 1.24 | 1.13 | 1.11 | 1.37 | 1.28 |
| HCC-44 | – | – | – | – | – | 0.777 | 0.924 | 0.944 | 0.921 | 0.963 | 0.556 | – | 0.478 | 0.682 | 0.479 | 1.04 | 0.913 | 0.936 | 0.934 | 1.07 |
| HCC-78 | 0.529 | 0.629 | 0.594 | 0.585 | 0.6 | – | 0.706 | 0.731 | 0.715 | 0.733 | 0.4 | 0.364 | 0.339 | 0.402 | 0.423 | 0.599 | 0.434 | 0.664 | 0.643 | 0.591 |
